Laboratory results reported in the supplement of paper PMC4858399.
Counter-ions that a name gives are not always drawn.

Key:
[1] = system: Caenorhabditis elegans N2; test: mean nematode size ln(EXT) after 48 h, plate-adjusted (DMSO control set to 6) (ln(EXT), control-adjusted); higher = larger nematodes / less growth inhibition; conditions: exposure time 48 h
In short: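 Each treatment used 4–6 wells of 50 synchronised C. elegans N2 L1 larvae, kept for 48 h at 20°C in K-medium with killed OP50, 1% DMSO and 0.5–200 µM chemical. Debris was excluded by a growth model after the Biosort measured per-worm extinction. Mean size per well came from natural-logged values and was plate-adjusted. That adjustment subtracted the vehicle control mean and then added 6.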

[2] = system: Caenorhabditis elegans N2; test: lowest effective concentration for larval growth inhibition (size below effect threshold); higher = less potent; conditions: exposure time 48 h
In short: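 Log-transformed well means of per-worm extinction, read as size on a Biosort, came from 50 C. elegans N2 L1 larvae per 96-well grown 48 h at 20°C in K-medium with killed bacteria, 1% DMSO and 0.5 to 200 µM chemical. The lowest effective concentration is the first dose at which the plate-adjusted mean size is below the threshold and stays below it at every higher dose. The threshold is 5.665.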

Row | Structure (SMILES) | mean nematode size ln(EXT) (ln) ([1]; 0.5 µM) | mean nematode size ln(EXT) (ln) ([1]; 1 µM) | mean nematode size ln(EXT) (ln) ([1]; 5 µM) | mean nematode size ln(EXT) (ln) ([1]; 10 µM) | mean nematode size ln(EXT) (ln) ([1]; 50 µM) | mean nematode size ln(EXT) (ln) ([1]; 100 µM) | mean nematode size ln(EXT) (ln) ([1]; 200 µM) | lowest effective concentration [2] [µM]
1 | NCC1(Cc2noc(=O)[nH]2)CCCCC1 | 5.77 | 5.69 | 5.76 | 5.73 | 5.69 | 5.72 | 5.7 | > 200
2 | CCNc1nc(Cl)nc(NC(C)(C)C#N)n1 [Cyanazine] | 5.89 | 5.95 | 5.88 | 6.03 | 6.26 | 6.42 | 5.86 | > 200
3 | Oc1ccccc1 [Phenol] | 6.09 | 5.98 | 6.01 | 5.98 | 5.94 | 5.92 | 6.02 | > 200
4 | NC(=O)NO [Hydroxyurea] | 6 | 5.97 | 5.92 | 5.93 | 5.75 | 5.63 | 5.73 | > 200
5 | CCOC(=O)c1ccc(O)cc1 [Ethylparaben] | 5.98 | 5.82 | 5.93 | 5.81 | 5.84 | 5.84 | 5.74 | > 200
6 | CCCCN(CCCC)CCCC [Tributylamine] | 5.91 | 6 | 5.98 | 6.1 | 5.96 | 5.92 | 5.8 | > 200
7 | Cc1cc(C)c(O)c(C)c1 [2,4,6-Trimethylphenol] | 5.76 | 5.87 | 5.85 | 5.84 | 5.87 | 5.86 | 5.76 | > 200
8 | OCC(CO)(CBr)CBr [2,2-Bis(bromomethyl)-1,3-propanediol] | 6.41 | 5.91 | 5.99 | 5.63 | 5.67 | 5.93 | 5.64 | 200
9 | CCCCCCCCCCCCCCCCCC(=O)O [Stearic acid] | 6.02 | 5.96 | 6.03 | 5.96 | 5.87 | 5.85 | 5.91 | > 200
10 | CO[C@@H]1COCC[C@@H]1N[C@@H]1CC[C@@](C(=O)N2CCc3ncc(C(F)(F)F)cc3C2)(C(C)C)C1 | 5.89 | 5.88 | 5.95 | 5.95 | 5.93 | 5.86 | 5.84 | > 200
11 | Nc1nc(=S)c2[nH]cnc2[nH]1 [6-Thioguanine] | 5.81 | 5.79 | 5.86 | 5.8 | 5.78 | 5.86 | 5.72 | > 200
12 | Cc1ccc([N+](=O)[O-])cc1N [2-Methyl-5-nitroaniline] | 5.93 | 5.42 | 5.81 | 5.9 | 5.13 | 5.58 | 5.66 | 50
13 | CCCCCCCC=O [Octanal] | 6 | 5.82 | 5.94 | 5.77 | 5.88 | 5.84 | 5.77 | > 200
14 | O=C(O)C(Cl)(Cl)Cl [Trichloroacetic acid] | 5.84 | 5.85 | 5.86 | 5.91 | 5.89 | 5.91 | 5.67 | > 200
15 | O=C(OCCOCCOC(=O)c1ccccc1)c1ccccc1 [Di(ethylene glycol) dibenzoate] | 5.89 | 5.82 | 5.77 | 5.76 | 5.71 | 5.79 | 5.66 | 200
16 | O=C(O)COc1ccc(Cl)cc1Cl [2,4-Dichlorophenoxyacetic acid (2,4-D)] | 5.91 | 5.88 | 5.96 | 5.97 | 5.83 | 6.02 | 5.89 | > 200
17 | Oc1ccc2ccccc2c1N=Nc1ccccc1 [Sudan I] | 5.91 | 5.88 | 5.87 | 5.83 | 5.7 | 5.77 | 5.68 | > 200
18 | CC(C)(C)OOC(=O)c1ccccc1 [tert-Butyl perbenzoate] | 6.05 | 6.11 | 6.1 | 6.03 | 6 | 6.09 | 5.87 | > 200
19 | CCOCCOCCO [Diethylene glycol monoethyl ether] | 6.02 | 6.03 | 6.07 | 6.05 | 6.03 | 6.06 | 5.76 | > 200
20 | CCc1cc(C2=C(C(=O)O)N(c3ccccc3C(F)(F)F)S(=O)(=O)c3ccccc32)cc2c1OCO2 [Fandosentan potassium salt] | 5.81 | 5.82 | 5.89 | 5.85 | 5.75 | 5.75 | 5.69 | > 200
21 | OCC(CO)n1cnc(-c2ccc(F)cc2)c1-c1ccnc(Oc2ccccc2)n1 | 6.02 | 5.98 | 5.97 | 6.03 | 6.04 | 5.98 | 5.82 | > 200
22 | Cc1occc(=O)c1O [Maltol] | 6.08 | 5.97 | 6.02 | 6.07 | 6 | 5.93 | 5.76 | > 200
23 | COC(=O)c1ccccc1C(=O)O [Methyl hydrogen phthalate] | 6.07 | 6.01 | 6.1 | 6.07 | 6.14 | 6.14 | 5.95 | > 200
24 | CCCCOCCO [2-Butoxyethanol] | 5.93 | 5.98 | 5.92 | 6 | 6.01 | 5.84 | 5.81 | > 200
25 | CC(C)c1cccc(C(C)C)c1NC(=O)NS(=O)(=O)c1cc(C(C)(C)O)co1 | 5.93 | 5.86 | 5.97 | 5.91 | 6 | 5.8 | 5.79 | > 200
26 | COC(=O)CCC(=O)OC [Dimethyl succinate] | 5.88 | 5.94 | 5.85 | 6.11 | 5.84 | 5.87 | 5.96 | > 200
27 | CC(O)CN(CCN(CC(C)O)CC(C)O)CC(C)O (stereo not given) [N,N,N',N'-Tetrakis(2-Hydroxypropyl)ethylenediamine] | 5.67 | 5.6 | 5.71 | 5.67 | 5.01 | 5.4 | 5.66 | 50
28 | CCCCCCCC(=O)O [Octanoic acid] | 6 | 5.81 | 5.92 | 5.8 | 5.89 | 5.84 | 5.78 | > 200

Row | Structure (SMILES) | mean nematode size ln(EXT) (ln) ([1]; 0.5 µM) | mean nematode size ln(EXT) (ln) ([1]; 1 µM) | mean nematode size ln(EXT) (ln) ([1]; 5 µM) | mean nematode size ln(EXT) (ln) ([1]; 10 µM) | mean nematode size ln(EXT) (ln) ([1]; 50 µM) | mean nematode size ln(EXT) (ln) ([1]; 100 µM) | mean nematode size ln(EXT) (ln) ([1]; 200 µM) | lowest effective concentration [2] [µM]
29 | CC1(C)C(=O)N(Cl)C(=O)N1Cl [1,3-Dichloro-5,5-dimethylhydantoin] | 5.81 | 5.79 | 5.79 | 5.82 | 5.83 | 5.8 | 5.67 | > 200
30 | N#C/N=C1\SCCN1Cc1ccc(Cl)nc1 [Thiacloprid] | 5.99 | 5.88 | 5.94 | 5.96 | 5.96 | 5.89 | 5.81 | > 200
31 | Cc1cc(Cc2ccc(N)c(C)c2)ccc1N [4,4'-Methylene bis(2-methylaniline)] | 5.83 | 5.82 | 5.8 | 5.78 | 5.79 | 5.83 | 5.71 | > 200
32 | CCNc1nc(N)nc(Cl)n1 [6-Deisopropylatrazine] | 6.12 | 6.17 | 6.08 | 6.05 | 5.95 | 6 | 5.94 | > 200
33 | O=C1CCCCCN1 [Caprolactam] | 5.8 | 5.81 | 5.84 | 5.87 | 5.88 | 5.55 | 5.68 | > 200
34 | CC1=NNC(=O)N(/N=C/c2cccnc2)C1 [Pymetrozine] | 5.74 | 5.77 | 5.8 | 5.78 | 5.77 | 5.89 | 5.76 | > 200
35 | O=P1(N(CCCl)CCCl)NCCCO1 (stereo not given) [Cytoxan hydrate] | 5.87 | 5.9 | 5.89 | 5.8 | 5.92 | 5.9 | 5.93 | > 200
36 | CN1CCCC1=O [N-Methyl-2-pyrrolidone] | 5.94 | 5.92 | 5.89 | 5.81 | 5.8 | 5.89 | 5.84 | > 200
37 | Cc1ncc([C@@H](CCCCCCc2ccc3c(n2)NCCC3)CC(=O)O)cn1 | 5.81 | 5.79 | 5.84 | 5.84 | 5.8 | 5.87 | 5.86 | > 200
38 | CCCCc1ccccc1 [Butylbenzene] | 5.65 | 5.67 | 5.69 | 5.67 | 5.53 | 5.6 | 5.75 | > 200
39 | O=C1O[C@H]([C@H](O)CO)C([O-])=C1O.[Na+] [Sodium erythorbate] | 5.96 | 5.89 | 5.94 | 5.98 | 6 | 5.9 | 5.68 | > 200
40 | CCc1cnc(C2=NC(C)(C(C)C)C(=O)N2)c(C(=O)O)c1 (stereo not given) [Imazethapyr] | 5.99 | 5.93 | 6.06 | 6.15 | 6.12 | 6.24 | 6.05 | > 200
41 | CCCCOC(=O)c1ccccc1C(=O)OCc1ccccc1 [Butyl benzyl phthalate] | 5.93 | 5.94 | 6.01 | 5.98 | 6.17 | 5.76 | 5.67 | > 200
42 | C[C@H](O)CCO [1,3-Butanediol] | 5.92 | 5.9 | 5.88 | 6.01 | 6 | 6.02 | 5.74 | > 200
43 | C[N+](C)(C)CC1CO1 (stereo not given) [Oxiranemethanaminium, N,N,N-trimethyl-, chloride] | 5.78 | 5.84 | 5.81 | 5.54 | 5.83 | 5.84 | 5.66 | 200
44 | CCCOC(=O)NCCCN(C)C [Propamocarb hydrochloride] | 5.84 | 5.93 | 5.9 | 5.93 | 6.01 | 5.91 | 5.89 | > 200
45 | COC(=O)CC(=O)OC [Dimethyl malonate] | 5.85 | 5.89 | 5.88 | 6.13 | 5.87 | 5.89 | 5.75 | > 200
46 | CCCN(CCC)C(=O)SCC [EPTC] | 6.11 | 6.22 | 6.09 | 6 | 6.1 | 6.12 | 5.86 | > 200
47 | CN(C)C(=O)Cl [Dimethylcarbamoyl chloride] | 5.77 | 5.81 | 5.82 | 5.71 | 5.84 | 5.9 | 5.73 | > 200
48 | N#Cc1cc(Br)c(O)c(Br)c1 [Bromoxynil] | 5.85 | 5.95 | 5.86 | 5.91 | 5.84 | 5.95 | 5.67 | > 200
49 | N#C[C@@H]1CC(F)(F)CN1C(=O)CNC1CC2CCC(C1)N2c1ncccn1 (stereo not given in full) | 5.82 | 5.89 | 5.85 | 6 | 5.95 | 5.78 | 5.85 | > 200
50 | CCNc1cccc(C)c1 [N-Ethyl-3-methylaniline] | 5.68 | 5.72 | 5.59 | 5.59 | 5.63 | 5.72 | 5.63 | 200
51 | O=S1(=O)CCCO1 [1,3-Propane sultone] | 5.83 | 5.87 | 5.85 | 5.78 | 5.84 | 5.91 | 5.76 | > 200
52 | c1ccc(C2CO2)cc1 (stereo not given) [Styrene oxide] | 6.05 | 6.04 | 6.03 | 6.01 | 6.03 | 6.03 | 5.89 | > 200
53 | Cc1cc(-c2ccc(N)c(C)c2)ccc1N [o-Tolidine] | 5.82 | 5.91 | 5.9 | 5.97 | 5.85 | 5.84 | 5.86 | > 200
54 | CCOC(=O)COc1cc(-c2nn(C)c(OC(F)F)c2Cl)c(F)cc1Cl [Pyraflufen-ethyl] | 5.75 | 5.74 | 5.74 | 5.85 | 5.98 | 6.02 | 5.88 | > 200
55 | Oc1ccccc1Cl [2-Chlorophenol] | 5.99 | 5.99 | 6.06 | 6.11 | 6.21 | 6.13 | 5.71 | > 200
